According to patent US9789181B2, “PAN-DR binding polypeptides and uses thereof” (Epimmune Inc., priority 2009, dated 2017):
Where no end group is shown, it is not given here.

Key:
HLA DRB1 *0404 = HLA DRB1 *0404 (Homo sapiens, UniProt P01903+P01911, A100R/A169T/F76Y/I96L/K127E/L162R/M171V/N62H/P40V/Q125Y/R42H/S133A/S149N/S66Y/V209L/W38E); experiment: IC50nM to purified HLA | DRB1 *0404
Method: (§1) Table printed on a drawing sheet, FIG. 1 (contd.)
(§2) Head of the field: IC50nM to purified HLA | DRB1 *0404
(§3) First copying reader's note: Continued from the preceding sheet of FIG. 1; decimal commas are used, the analog names give the substituted residues and positions in PADRE, and some values are printed in italics or bold and some SEQ ID NOs bold and underlined without a legend on this sheet.
(§4) Where the first naming reader finds the target: head: IC50nM to purified HLA | DRB1 *0404

HLA DRB1 *0101 = HLA DRB1 *0101 (Homo sapiens, UniProt P01903+P01911, A100R/D57E/F55L/F60I/F76Y/I96L/L162R/M171V/P40L/Q125E/R42F/V115G/Y59C); experiment: IC50nM to purified HLA | DRB1 *0101
Method: as §1
(§5) Head of the field: IC50nM to purified HLA | DRB1 *0101
as §3
(§6) Where the first naming reader finds the target: head: IC50nM to purified HLA | DRB1 *0101

HLA DRB1 *0802 = HLA DRB1 *0802 (Homo sapiens, UniProt P01903+P01911, A100R/A103L/A169T/F76Y/H45Y/I96F/K41T/L162R/M171V/P40S/Q125H/Q178H/Q39Y/Q99D/R218S/R42G/S66Y/V115G/W38E); experiment: IC50nM to purified HLA | DRB1 *0802
Method: as §1
(§7) Head of the field: IC50nM to purified HLA | DRB1 *0802
as §3
(§8) Where the first naming reader finds the target: head: IC50nM to purified HLA | DRB1 *0802

HLA DRB1 *0405 = HLA DRB1 *0405 (Homo sapiens, UniProt P01903+P01911, A100R/A169T/D86S/F76Y/I96L/K127E/L162R/M171V/N62H/P40V/Q125Y/R42H/S133A/S149N/S66Y/V115G/V209L/W38E); experiment: IC50nM to purified HLA | DRB1 *0405
Method: as §1
(§9) Head of the field: IC50nM to purified HLA | DRB1 *0405
as §3
(§10) Where the first naming reader finds the target: head: IC50nM to purified HLA | DRB1 *0405

HLA DRB1 *1501 = HLA DRB1 *1501 (Homo sapiens, UniProt P01903+P01911); experiment: IC50nM to purified HLA | DRB1 *1501
Method: as §1
(§11) Head of the field: IC50nM to purified HLA | DRB1 *1501
as §3
(§12) Where the first naming reader finds the target: head: IC50nM to purified HLA | DRB1 *1501

HLA DRB1 *0901 = HLA DRB1 *0901 (Homo sapiens, UniProt P01903+P01911, A100R/A103E/D57H/D86V/F55Y/F60I/F76Y/I96F/K127E/L162R/M171V/P40D/Q125H/Q99R/R33Q/R42F/S133A/S66N/T210M/V115G/W38K/Y107V/Y59G/Y89S); experiment: IC50nM to purified HLA | DRB1 *0901
Method: as §1
Head of the field: IC50nM to purified HLA | DRB1 *0901
as §3
Where the first naming reader finds the target: head: IC50nM to purified HLA | DRB1 *0901

HLA DRB4 *0101 = HLA DRB4 *0101 (Homo sapiens, UniProt P01903+P13762, G164S); experiment: IC50nM to purified HLA | DRB4 *0101
Sequence of HLA DRB4 *0101 (P01903 26-254 limits assumed): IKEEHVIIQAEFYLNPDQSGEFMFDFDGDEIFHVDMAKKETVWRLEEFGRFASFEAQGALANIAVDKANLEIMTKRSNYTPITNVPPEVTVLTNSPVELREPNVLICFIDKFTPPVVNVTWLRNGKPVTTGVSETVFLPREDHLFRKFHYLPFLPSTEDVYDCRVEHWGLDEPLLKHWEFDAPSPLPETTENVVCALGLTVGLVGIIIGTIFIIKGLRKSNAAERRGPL
Sequence of HLA DRB4 *0101 (P13762 whole entry G164S): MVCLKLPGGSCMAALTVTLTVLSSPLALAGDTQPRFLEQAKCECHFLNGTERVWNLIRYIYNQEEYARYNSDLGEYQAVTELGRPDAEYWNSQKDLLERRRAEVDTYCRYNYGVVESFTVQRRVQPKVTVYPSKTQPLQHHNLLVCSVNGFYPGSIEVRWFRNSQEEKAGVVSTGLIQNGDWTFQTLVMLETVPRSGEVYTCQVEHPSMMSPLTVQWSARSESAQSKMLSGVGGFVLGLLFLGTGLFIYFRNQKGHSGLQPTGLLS
Method: as §1
(§13) Head of the field: IC50nM to purified HLA | DRB4 *0101
as §3
(§14) Where the first naming reader finds the target: head: IC50nM to purified HLA | DRB4 *0101

HLA DRB1 *1101 = HLA DRB1 *1101 (Homo sapiens, UniProt P01903+P01911, A100R/A169T/A87E/I96F/K41T/L162R/M171V/P40S/Q125H/Q178H/Q39Y/Q99D/R42S/S66Y/T262R/V115G/W38E); experiment: IC50nM to purified HLA | DRB1 *1101
Sequence of HLA DRB1 *1101 (P01903 26-254 limits assumed, other chains not shown): as the sequence (P01903 26-254 limits assumed) above
Method: as §1
Head of the field: IC50nM to purified HLA | DRB1 *1101
as §3
Where the first naming reader finds the target: head: IC50nM to purified HLA | DRB1 *1101

purified HLA DRB1 *0401 = purified HLA DRB1 *0401 (Homo sapiens, UniProt P01903+P01911, A100K/A169T/F76Y/I96L/K127E/L162R/M171V/N62H/P40V/Q125Y/R42H/S133A/S149N/S66Y/V115G/V209L/W38E); experiment: IC50nM to purified HLA | DRB1 *0401
Method: (§15) Table printed on a drawing sheet, FIG. 1
(§16) Head of the field: IC50nM to purified HLA | DRB1 *0401
(§17) First copying reader's note: The comma is the decimal sign and the point a thousands separator (e.g. 21.831); some values are printed bold or italic and some SEQ ID NOs underlined, with no legend on the sheet.
(§18) Where the first naming reader finds the target: head: IC50nM to purified HLA | DRB1 *0401

purified HLA DRB1 *1501 = purified HLA DRB1 *1501 (Homo sapiens, UniProt P01903+P01911); experiment: IC50nM to purified HLA | DRB1 *1501
Method: as §15, §11, §17, §12

purified HLA DRB1 *0802 = purified HLA DRB1 *0802 (Homo sapiens, UniProt P01903+P01911, A100R/A103L/A169T/F76Y/H45Y/I96F/K41T/L162R/M171V/P40S/Q125H/Q178H/Q39Y/Q99D/R218S/R42G/S66Y/V115G/W38E); experiment: IC50nM to purified HLA | DRB1 *0802
Method: as §15, §7, §17, §8

purified HLA DRB1 *0404 = purified HLA DRB1 *0404 (Homo sapiens, UniProt P01903+P01911, A100R/A169T/F76Y/I96L/K127E/L162R/M171V/N62H/P40V/Q125Y/R42H/S133A/S149N/S66Y/V209L/W38E); experiment: IC50nM to purified HLA | DRB1 *0404
Method: as §15, §2, §17, §4

purified HLA DRB4 *0101 = purified HLA DRB4 *0101 (Homo sapiens, UniProt P01903+P13762, G164S); experiment: IC50nM to purified HLA | DRB4 *0101
Sequence of purified HLA DRB4 *0101 (P01903 26-254 limits assumed): as above
Sequence of purified HLA DRB4 *0101 (P13762 whole entry G164S): as the sequence (P13762 whole entry G164S) above
Method: as §15, §13, §17, §14

purified HLA DRB1 *0301 = purified HLA DRB1 *0301 (Homo sapiens, UniProt P01903+P01911, A100K/A102G/A103R/A169T/F55Y/I96L/K41T/L162R/M171V/P40S/Q125H/Q178H/Q39Y/R42S/S66N/T106N/T262R/W38E/Y61H); experiment: IC50nM to purified HLA | DRB1 *0301
Sequence of purified HLA DRB1 *0301 (P01903 26-254 limits assumed, other chains not shown): as the sequence (P01903 26-254 limits assumed) above
Method: as §15
(§19) Head of the field: IC50nM to purified HLA | DRB1 *0301
as §17
(§20) Where the first naming reader finds the target: head: IC50nM to purified HLA | DRB1 *0301

purified HLA DRB1 *0701 = purified HLA DRB1 *0701 (Homo sapiens, UniProt P01903+P01911, A100R/A102G/A103Q/D57E/D86V/E43K/F76Y/K127E/L162R/M171V/P40G/Q125H/Q99D/R33Q/R42Y/R54Q/S133A/S66F/T210M/V115G/Y107V/Y59L/Y89S); experiment: IC50nM to purified HLA | DRB1 *0701
Method: as §15
Head of the field: IC50nM to purified HLA | DRB1 *0701
as §17
Where the first naming reader finds the target: head: IC50nM to purified HLA | DRB1 *0701

purified HLA DRB1 *0101 = purified HLA DRB1 *0101 (Homo sapiens, UniProt P01903+P01911, A100R/D57E/F55L/F60I/F76Y/I96L/L162R/M171V/P40L/Q125E/R42F/V115G/Y59C); experiment: IC50nM to purified HLA | DRB1 *0101
Method: as §15, §5, §17, §6

purified HLA DRB5 *0101 = purified HLA DRB5 *0101 (Homo sapiens, UniProt P01903+Q30154); experiment: IC50nM to purified HLA | DRB5 *0101
Method: as §15
(§21) Head of the field: IC50nM to purified HLA | DRB5 *0101
as §17
(§22) Where the first naming reader finds the target: head: IC50nM to purified HLA | DRB5 *0101

purified HLA DRB1 *0405 = purified HLA DRB1 *0405 (Homo sapiens, UniProt P01903+P01911, A100R/A169T/D86S/F76Y/I96L/K127E/L162R/M171V/N62H/P40V/Q125Y/R42H/S133A/S149N/S66Y/V115G/V209L/W38E); experiment: IC50nM to purified HLA | DRB1 *0405
Method: as §15, §9, §17, §10

HLA DRB1 *0301 = HLA DRB1 *0301 (Homo sapiens, UniProt P01903+P01911, A100K/A102G/A103R/A169T/F55Y/I96L/K41T/L162R/M171V/P40S/Q125H/Q178H/Q39Y/R42S/S66N/T106N/T262R/W38E/Y61H); experiment: IC50nM to purified HLA | DRB1 *0301
Sequence of HLA DRB1 *0301 (P01903 26-254 limits assumed, other chains not shown): as the sequence (P01903 26-254 limits assumed) above
Method: as §1, §19, §3, §20

HLA DRB1 *0401 = HLA DRB1 *0401 (Homo sapiens, UniProt P01903+P01911, A100K/A169T/F76Y/I96L/K127E/L162R/M171V/N62H/P40V/Q125Y/R42H/S133A/S149N/S66Y/V115G/V209L/W38E); experiment: IC50nM to purified HLA | DRB1 *0401
Method: as §1, §16, §3, §18

HLA DRB1 *1302 = HLA DRB1 *1302 (Homo sapiens, UniProt P01903+P01911, A100E/A169T/K41T/L162R/M171V/P40S/Q125H/Q178H/Q39Y/Q99D/R42S/S66N/T262R/V115G/W38E/Y61H); experiment: IC50nM to purified HLA | DRB1 *1302
Sequence of HLA DRB1 *1302 (P01903 26-254 limits assumed, other chains not shown): as the sequence (P01903 26-254 limits assumed) above
Method: as §1
(§23) Head of the field: IC50nM to purified HLA | DRB1 *1302
as §3
(§24) Where the first naming reader finds the target: head: IC50nM to purified HLA | DRB1 *1302

HLA DRB5 *0101 = HLA DRB5 *0101 (Homo sapiens, UniProt P01903+Q30154); experiment: IC50nM to purified HLA | DRB5 *0101
Method: as §1, §21, §3, §22

purified HLA DRB1 *1302 = purified HLA DRB1 *1302 (Homo sapiens, UniProt P01903+P01911, A100E/A169T/K41T/L162R/M171V/P40S/Q125H/Q178H/Q39Y/Q99D/R42S/S66N/T262R/V115G/W38E/Y61H); experiment: IC50nM to purified HLA | DRB1 *1302
Sequence of purified HLA DRB1 *1302 (P01903 26-254 limits assumed, other chains not shown): as the sequence (P01903 26-254 limits assumed) above
Method: as §15, §23, §17, §24

IC50 (HLA DRB1 *0404)	IC50 (HLA DRB1 *0101)	IC50 (HLA DRB1 *0802)	IC50 (HLA DRB1 *0405)	IC50 (HLA DRB1 *1501)	IC50 (HLA DRB1 *0901)	IC50 (HLA DRB4 *0101)	IC50 (HLA DRB1 *1101)	IC50 (purified HLA DRB1 *0401)	IC50 (purified HLA DRB1 *1501)	IC50 (purified HLA DRB1 *0802)	IC50 (purified HLA DRB1 *0404)	IC50 (purified HLA DRB4 *0101)	IC50 (purified HLA DRB1 *0301)	IC50 (purified HLA DRB1 *0701)	IC50 (purified HLA DRB1 *0101)	IC50 (HLA DRB1 *0401)	Sequence	also measured
0.0069 µM	0.009 µM	0.037 µM	0.044 µM	0.137 µM	0.087 µM	0.878 µM	0.07 µM										AAAEFVAANTLHAAA [SEQ ID NO: 49]	
								0.0022 µM	0.025 µM	0.0078 µM	0.0029 µM	0.44 µM	0.129 µM	0.06 µM	0.0036 µM		AAAFFVAAWTLHAAA [SEQ ID NO: 12]	
								0.0017 µM	0.0048 µM	0.0074 µM	0.0023 µM	0.805 µM	0.151 µM	0.054 µM	0.0044 µM		AAAFFVAAYTLHAAA [SEQ ID NO: 13]	IC50 (purified HLA DRB5 *0101): 0.011 µM; IC50 (purified HLA DRB1 *0405): 0.019 µM
0.0031 µM	0.004 µM	0.011 µM		0.013 µM	0.024 µM	0.1 µM	0.0081 µM									0.0022 µM	AAAHFVAAFTLHAAA [SEQ ID NO: 28]	IC50 (HLA DRB1 *0301): 0.228 µM
0.0081 µM		0.019 µM	0.0081 µM	0.031 µM	0.046 µM		0.041 µM									0.0064 µM	AAAHFVAAFTLKAEA [SEQ ID NO: 38]	IC50 (HLA DRB1 *1302): 0.801 µM; IC50 (HLA DRB5 *0101): 0.019 µM
										0.0093 µM		0.267 µM		0.053 µM	0.0042 µM		AAAHFVAAWTLHAAA [SEQ ID NO: 26]	IC50 (purified HLA DRB1 *1302): 1.19 µM
